One assay addresses T1, TP (h) (TXA2/PGH2) (Homo sapiens, UniProt P21731).
T1 construct: purchased Millipore KinaseProfiler (kinases); Cerep (receptors and ion channels)
As to the kind of experiment: CEREP binding panel. The following applies: antagonist radioligand, read-out: % Inhibition of Control Specific Binding.

A further assay deals with T2, ARG (Homo sapiens, UniProt P42684).
T2 construct: purchased Millipore KinaseProfiler (kinases); Cerep (receptors and ion channels)
As to the kind of experiment: Millipore kinase panel. Particulars: ATP at Km, read-out: % Control. Type of assay: biochemical.

A further assay deals with T3, GSK3ALPHA (Homo sapiens, UniProt P49840).
T3 construct: purchased Millipore
As to the kind of experiment: Millipore kinase panel. Type of assay: biochemical. The following applies: read-out: % Control.

A further assay concerns the target T4, HCK (Homo sapiens, UniProt P08631).
T4 construct: purchased Millipore KinaseProfiler (kinases); Cerep (receptors and ion channels)
Kind of assay: Millipore kinase panel. In kind it is biochemical. The following applies: ATP at Km, read-out: % Control.

Another assay deals with T5, ACK1 (Homo sapiens, UniProt Q07912).
T5 construct: purchased Millipore KinaseProfiler (kinases); Cerep (receptors and ion channels)
As to the kind of experiment: Millipore kinase panel. In kind it is biochemical. Particulars: read-out: % Control.

For a further assay, the system named is TCF1 or TCF4. Kind of assay: Endogenous TCF1 and TCF4 levels in COLO205-F1756 clone 4. In kind it is cell-based, human. Particulars: COLO205-F1756 clone 4, 350 nM. From the text:
Supplementary Figure S2. Levels of TCF1 and TCF4 in response to treatment of COLO205-
F1756 clone 4 (an APC-mutant human colorectal cancer cell line engineered to express a
(1 picture or pasted object on this page, not shown here)

The target of the next assay is T6, V1a (h) (Homo sapiens, UniProt P37288).
T6 construct: purchased Millipore KinaseProfiler (kinases); Cerep (receptors and ion channels)
Kind of assay: CEREP binding panel. Particulars: agonist radioligand, read-out: % Inhibition of Control Specific Binding.

A further assay concerns the target T7, ABL(T315I) (Homo sapiens, UniProt P00519, T315I).
T7 construct: purchased Millipore KinaseProfiler (kinases); Cerep (receptors and ion channels)
As to the kind of experiment: Millipore kinase panel. Type of assay: biochemical. Particulars: read-out: % Control.

The target of another assay is T8, CDK2/CYCLINE (Homo sapiens, UniProt P24941).
T8 construct: purchased Millipore KinaseProfiler (kinases); Cerep (receptors and ion channels)
As to the kind of experiment: Millipore kinase panel. Type of assay: biochemical. The following applies: read-out: % Control.

A further assay has as its target T9, CDK5/P35 (Homo sapiens, UniProt Q00535).
T9 construct: purchased Millipore KinaseProfiler (kinases); Cerep (receptors and ion channels)
Kind of assay: Millipore kinase panel. In kind it is biochemical. Particulars: read-out: % Control.

The next assay concerns the target T10, CK1DELTA (Homo sapiens, UniProt P48730).
T10 construct: purchased Millipore KinaseProfiler (kinases); Cerep (receptors and ion channels)
As to the kind of experiment: Millipore kinase panel. Particulars: read-out: % Control. In kind it is biochemical.

The next assay has as its target T11, CK2ALPHA2 (Homo sapiens, UniProt P19784).
T11 construct: purchased Millipore KinaseProfiler (kinases); Cerep (receptors and ion channels)
As to the kind of experiment: Millipore kinase panel. Type of assay: biochemical. Particulars: read-out: % Control.

The next assay has as its target T12, EGFR(L858R) (Homo sapiens, UniProt P00533, L858R).
T12 construct: purchased Millipore KinaseProfiler (kinases); Cerep (receptors and ion channels)
Kind of assay: Millipore kinase panel. Type of assay: biochemical. The following applies: read-out: % Control.

A further assay deals with T13, IGF-1R (Homo sapiens, UniProt P08069).
T13 construct: purchased Millipore KinaseProfiler (kinases); Cerep (receptors and ion channels)
As to the kind of experiment: Millipore kinase panel. Type of assay: biochemical. The following applies: read-out: % Control.

The next assay concerns the target T14, IR (Homo sapiens, UniProt P06213).
T14 construct: purchased Millipore KinaseProfiler (kinases); Cerep (receptors and ion channels)
Kind of assay: Millipore kinase panel. Particulars: read-out: % Control. In kind it is biochemical.

The target in another assay is T15, CKIT(D816V) (Homo sapiens, UniProt P10721, D816V).
T15 construct: purchased Millipore KinaseProfiler (kinases); Cerep (receptors and ion channels)
As to the kind of experiment: Millipore kinase panel. Type of assay: biochemical. Particulars: read-out: % Control.

The next assay deals with T16, PI3K GAMMA (Homo sapiens, UniProt P48736).
T16 construct: purchased Millipore KinaseProfiler (kinases); Cerep (receptors and ion channels)
As to the kind of experiment: Millipore kinase panel. In kind it is biochemical. The following applies: read-out: % Control.

The target of the next assay is T17, PKCETA (Homo sapiens, UniProt P24723).
T17 construct: purchased Millipore KinaseProfiler (kinases); Cerep (receptors and ion channels)
Kind of assay: Millipore kinase panel. Type of assay: biochemical. The following applies: read-out: % Control.

A further assay has as its target T18, CAMKIIDELTA (Homo sapiens, UniProt Q13557).
T18 construct: purchased Millipore KinaseProfiler (kinases); Cerep (receptors and ion channels)
Kind of assay: Millipore kinase panel. The following applies: read-out: % Control. Type of assay: biochemical.

The target of the next assay is T19, MER (Homo sapiens, UniProt Q12866).
T19 construct: purchased Millipore KinaseProfiler (kinases); Cerep (receptors and ion channels)
Kind of assay: Millipore kinase panel. In kind it is biochemical. The following applies: read-out: % Control.

Another assay deals with T20, PDGFRALPHA(D842V) (Homo sapiens, UniProt P16234, D842V).
T20 construct: purchased Millipore KinaseProfiler (kinases); Cerep (receptors and ion channels)
As to the kind of experiment: Millipore kinase panel. In kind it is biochemical. The following applies: read-out: % Control.

The target in the next assay is T21, FGFR1(V561M) (Homo sapiens, UniProt P11362, V561M).
T21 construct: purchased Millipore KinaseProfiler (kinases); Cerep (receptors and ion channels)
Kind of assay: Millipore kinase panel. In kind it is biochemical. The following applies: read-out: % Control.

In another assay the target is T22, SRC(1-530) (Homo sapiens, UniProt P12931).
T22 construct: purchased Millipore KinaseProfiler (kinases); Cerep (receptors and ion channels)
Kind of assay: Millipore kinase panel. In kind it is biochemical. The following applies: read-out: % Control.

The next assay has as its target T23, ABL (H396P) (Homo sapiens, UniProt P00519, H396P).
T23 construct: purchased Millipore KinaseProfiler (kinases); Cerep (receptors and ion channels)
Kind of assay: Millipore kinase panel. The following applies: read-out: % Control. Type of assay: biochemical.

Another assay deals with T24, PEK (Homo sapiens, UniProt Q9NZJ5).
T24 construct: purchased Millipore KinaseProfiler (kinases); Cerep (receptors and ion channels)
As to the kind of experiment: Millipore kinase panel. Type of assay: biochemical. Particulars: read-out: % Control.

Another assay has as its target hERG (Homo sapiens, UniProt Q12809). As to the kind of experiment: hERG inhibition. In general terms: hERG is a cardiac potassium channel; its block is linked to QT prolongation.

The values below come from article PMC4767141, “Discovery of Potent, Orally Bioavailable, Small-Molecule Inhibitors of WNT Signaling from a Cell-Based Pathway Screen” (Journal of Medicinal Chemistry, 2015).

T15 sequence (P10721 26-976 D816V): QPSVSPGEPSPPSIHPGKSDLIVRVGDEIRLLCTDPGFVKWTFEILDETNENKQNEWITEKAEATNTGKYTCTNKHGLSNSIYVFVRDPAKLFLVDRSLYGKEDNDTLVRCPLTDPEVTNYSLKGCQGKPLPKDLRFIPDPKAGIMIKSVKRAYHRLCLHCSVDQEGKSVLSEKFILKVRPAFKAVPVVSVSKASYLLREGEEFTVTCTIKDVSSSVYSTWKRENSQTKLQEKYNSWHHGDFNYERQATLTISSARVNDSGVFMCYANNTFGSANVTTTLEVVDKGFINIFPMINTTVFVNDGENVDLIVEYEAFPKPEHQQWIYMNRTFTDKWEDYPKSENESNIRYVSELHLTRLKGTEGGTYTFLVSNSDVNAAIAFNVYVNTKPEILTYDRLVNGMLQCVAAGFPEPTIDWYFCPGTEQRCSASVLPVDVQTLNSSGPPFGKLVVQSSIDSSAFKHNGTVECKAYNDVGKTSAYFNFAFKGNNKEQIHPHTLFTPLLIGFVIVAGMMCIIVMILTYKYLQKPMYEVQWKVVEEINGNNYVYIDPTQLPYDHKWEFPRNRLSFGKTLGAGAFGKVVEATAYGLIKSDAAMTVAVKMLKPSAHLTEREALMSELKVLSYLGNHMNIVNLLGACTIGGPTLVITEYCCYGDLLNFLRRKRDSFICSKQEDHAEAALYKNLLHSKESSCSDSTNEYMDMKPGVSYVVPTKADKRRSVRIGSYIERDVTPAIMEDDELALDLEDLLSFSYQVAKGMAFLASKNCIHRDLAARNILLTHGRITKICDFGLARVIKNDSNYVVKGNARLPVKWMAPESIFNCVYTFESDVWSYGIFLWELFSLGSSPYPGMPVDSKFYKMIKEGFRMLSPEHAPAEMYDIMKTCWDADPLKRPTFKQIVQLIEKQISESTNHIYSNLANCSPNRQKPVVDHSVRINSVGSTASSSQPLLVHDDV
T16 sequence (P48736 whole entry): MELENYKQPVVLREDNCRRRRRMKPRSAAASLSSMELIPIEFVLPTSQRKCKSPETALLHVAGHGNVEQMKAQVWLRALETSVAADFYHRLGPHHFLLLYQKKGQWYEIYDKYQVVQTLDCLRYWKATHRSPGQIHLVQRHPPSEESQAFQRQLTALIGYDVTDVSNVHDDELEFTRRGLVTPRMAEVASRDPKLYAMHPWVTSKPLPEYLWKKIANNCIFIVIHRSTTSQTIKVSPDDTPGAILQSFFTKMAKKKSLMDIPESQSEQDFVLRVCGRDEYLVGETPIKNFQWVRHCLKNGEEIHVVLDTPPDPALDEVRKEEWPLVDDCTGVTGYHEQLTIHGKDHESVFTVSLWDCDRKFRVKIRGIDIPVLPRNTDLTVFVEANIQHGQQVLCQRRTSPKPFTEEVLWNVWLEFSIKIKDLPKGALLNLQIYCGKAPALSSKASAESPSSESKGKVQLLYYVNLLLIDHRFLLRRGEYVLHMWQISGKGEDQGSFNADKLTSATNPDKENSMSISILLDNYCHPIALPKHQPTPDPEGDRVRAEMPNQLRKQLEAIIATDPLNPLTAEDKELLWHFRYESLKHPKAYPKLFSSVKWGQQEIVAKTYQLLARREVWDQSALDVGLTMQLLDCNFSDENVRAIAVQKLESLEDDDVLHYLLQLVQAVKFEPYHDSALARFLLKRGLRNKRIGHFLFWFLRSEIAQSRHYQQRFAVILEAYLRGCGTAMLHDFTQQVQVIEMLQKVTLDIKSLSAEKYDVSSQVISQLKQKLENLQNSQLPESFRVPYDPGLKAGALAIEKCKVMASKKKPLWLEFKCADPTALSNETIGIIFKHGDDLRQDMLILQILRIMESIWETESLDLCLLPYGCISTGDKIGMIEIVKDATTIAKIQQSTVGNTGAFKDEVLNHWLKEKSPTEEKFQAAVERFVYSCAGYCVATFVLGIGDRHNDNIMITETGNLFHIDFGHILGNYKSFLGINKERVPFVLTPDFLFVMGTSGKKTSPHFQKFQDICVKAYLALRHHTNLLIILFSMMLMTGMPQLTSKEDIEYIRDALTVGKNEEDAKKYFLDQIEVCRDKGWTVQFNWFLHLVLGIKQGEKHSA
T12 sequence (P00533 25-1210 L858R): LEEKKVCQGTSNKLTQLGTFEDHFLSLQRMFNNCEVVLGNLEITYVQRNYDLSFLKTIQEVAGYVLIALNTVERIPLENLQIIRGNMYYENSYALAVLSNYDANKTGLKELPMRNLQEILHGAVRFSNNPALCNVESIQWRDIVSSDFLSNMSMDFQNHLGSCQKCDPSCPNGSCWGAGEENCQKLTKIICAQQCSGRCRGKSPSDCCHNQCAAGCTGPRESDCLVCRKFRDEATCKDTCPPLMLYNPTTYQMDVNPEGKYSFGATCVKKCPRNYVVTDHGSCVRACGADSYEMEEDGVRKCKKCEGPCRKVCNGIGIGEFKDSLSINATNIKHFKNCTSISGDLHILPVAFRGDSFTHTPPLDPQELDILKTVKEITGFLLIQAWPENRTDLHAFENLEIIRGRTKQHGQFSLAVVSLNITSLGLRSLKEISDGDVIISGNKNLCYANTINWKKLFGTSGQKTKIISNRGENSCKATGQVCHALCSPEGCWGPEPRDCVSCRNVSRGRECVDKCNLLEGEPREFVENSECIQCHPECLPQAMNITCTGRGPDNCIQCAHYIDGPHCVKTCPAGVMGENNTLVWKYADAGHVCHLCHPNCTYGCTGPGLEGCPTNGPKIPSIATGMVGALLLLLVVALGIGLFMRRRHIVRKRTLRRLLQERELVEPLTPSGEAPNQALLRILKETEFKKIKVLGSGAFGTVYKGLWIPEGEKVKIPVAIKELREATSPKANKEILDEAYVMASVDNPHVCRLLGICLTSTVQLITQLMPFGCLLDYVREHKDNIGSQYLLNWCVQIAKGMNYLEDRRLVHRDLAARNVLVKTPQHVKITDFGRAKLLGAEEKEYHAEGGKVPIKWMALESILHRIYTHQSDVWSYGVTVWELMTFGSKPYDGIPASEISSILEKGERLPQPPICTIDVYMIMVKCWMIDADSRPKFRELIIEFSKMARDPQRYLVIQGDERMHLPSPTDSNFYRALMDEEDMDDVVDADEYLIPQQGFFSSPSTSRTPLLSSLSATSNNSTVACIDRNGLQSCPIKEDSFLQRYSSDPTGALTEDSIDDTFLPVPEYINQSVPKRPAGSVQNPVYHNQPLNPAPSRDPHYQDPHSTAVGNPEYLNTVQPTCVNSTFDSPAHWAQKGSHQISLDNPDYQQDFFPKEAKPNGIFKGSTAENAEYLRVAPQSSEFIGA
T22 sequence (P12931 1-530 limits assumed): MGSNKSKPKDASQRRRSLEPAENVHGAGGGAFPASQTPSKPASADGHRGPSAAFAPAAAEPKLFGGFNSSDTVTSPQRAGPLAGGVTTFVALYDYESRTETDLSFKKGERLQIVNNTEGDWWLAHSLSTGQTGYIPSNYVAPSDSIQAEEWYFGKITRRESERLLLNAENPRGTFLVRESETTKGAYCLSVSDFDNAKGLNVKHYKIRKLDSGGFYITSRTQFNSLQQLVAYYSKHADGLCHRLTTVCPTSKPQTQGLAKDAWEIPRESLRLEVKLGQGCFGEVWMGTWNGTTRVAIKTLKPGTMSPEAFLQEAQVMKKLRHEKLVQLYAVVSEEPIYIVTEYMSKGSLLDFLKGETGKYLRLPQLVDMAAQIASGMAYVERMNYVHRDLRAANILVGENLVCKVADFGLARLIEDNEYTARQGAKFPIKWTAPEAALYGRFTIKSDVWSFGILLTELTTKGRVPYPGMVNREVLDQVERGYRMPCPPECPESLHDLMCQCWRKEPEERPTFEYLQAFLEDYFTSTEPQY
T5 sequence (Q07912 whole entry): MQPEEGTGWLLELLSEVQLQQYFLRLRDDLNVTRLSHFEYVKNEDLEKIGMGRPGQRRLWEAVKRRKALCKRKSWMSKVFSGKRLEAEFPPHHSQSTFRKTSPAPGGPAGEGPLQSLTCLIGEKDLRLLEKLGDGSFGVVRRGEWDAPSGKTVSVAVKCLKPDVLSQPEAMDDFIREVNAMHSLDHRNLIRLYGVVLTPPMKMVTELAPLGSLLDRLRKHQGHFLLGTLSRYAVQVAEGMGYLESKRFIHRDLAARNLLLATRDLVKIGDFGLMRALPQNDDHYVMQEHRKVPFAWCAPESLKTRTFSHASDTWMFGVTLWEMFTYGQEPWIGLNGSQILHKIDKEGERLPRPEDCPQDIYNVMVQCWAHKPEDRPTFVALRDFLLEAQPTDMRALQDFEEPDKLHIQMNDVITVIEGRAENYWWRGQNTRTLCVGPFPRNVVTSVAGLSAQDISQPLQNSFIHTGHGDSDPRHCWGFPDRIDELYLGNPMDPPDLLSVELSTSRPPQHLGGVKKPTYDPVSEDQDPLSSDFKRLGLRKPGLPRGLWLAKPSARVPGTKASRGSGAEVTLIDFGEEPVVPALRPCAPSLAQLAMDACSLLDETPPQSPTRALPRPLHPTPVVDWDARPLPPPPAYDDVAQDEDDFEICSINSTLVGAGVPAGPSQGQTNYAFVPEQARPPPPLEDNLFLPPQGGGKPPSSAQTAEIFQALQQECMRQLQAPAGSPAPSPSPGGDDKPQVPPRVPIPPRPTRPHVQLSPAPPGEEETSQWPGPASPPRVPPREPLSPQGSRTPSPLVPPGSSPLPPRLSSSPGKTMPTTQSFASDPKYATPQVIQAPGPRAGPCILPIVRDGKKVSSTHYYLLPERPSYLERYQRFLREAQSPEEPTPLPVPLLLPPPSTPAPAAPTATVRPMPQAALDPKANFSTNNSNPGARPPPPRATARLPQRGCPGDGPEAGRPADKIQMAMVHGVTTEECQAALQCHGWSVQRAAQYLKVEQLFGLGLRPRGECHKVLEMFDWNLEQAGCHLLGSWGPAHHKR

With `O=C1NCCC12CCN(c1c(Cl)cncc1-c1ccc(N3CCOCC3)cc1)CC2` [Compound 44, 8-(3-Chloro-5-(4-morpholin-4-ylphenyl)pyridin-4-yl)-2,8-diazaspiro[4.5]decan-1-one], the inhibition (as a rule, the change of the read-out against control, counted positive when it falls) at 10 µM at TP (h) (TXA2/PGH2) turned out to be 14%. Further, the remaining activity at 1 µM at ARG was -12%; on GSK3ALPHA, -39%; on HCK it was 3%; at ACK1, 0%.
In the case of `Cn1cc(-c2ccc(-c3cncc(Cl)c3N3CCC4(CCNC4=O)CC3)cc2)cn1` [Compound 74, 8-(3-Chloro-5-(4-(1-methyl-1H-pyrazol-4-yl)phenyl)pyridin-4-yl)-2,8-diazaspiro[4.5]decan-1-one], the “effect on endogenous levels of TCF1 or TCF4” value in the assay with TCF1 or TCF4 was “did not affect endogenous levels of TCF1 or TCF4”. Besides, the inhibition at 10 µM at V1a (h) was -7%. Moreover, the remaining activity at 1 µM was 7% on ABL(T315I); -14% on CDK2/CYCLINE; -16% at CDK5/P35; 5% on CK1DELTA; -1% on CK2ALPHA2; 1% at EGFR(L858R). Also, the remaining activity at 1 µM at IGF-1R was 5%; at IR, -8%; on CKIT(D816V), 7%; at PI3K GAMMA, 2%; on PKCETA it was -13%; on CAMKIIDELTA it was 4%. Also, the remaining activity at 1 µM on MER was -6%; on PDGFRALPHA(D842V), -4%; at FGFR1(V561M), -8%; on SRC(1-530), -8%; on ABL (H396P), 17%; at PEK, 8%. The IC50 (usually the concentration needed to halve the response being measured) on hERG is greater than 10 µM.
